From patent US6194217A, “Method of diagnosing or categorizing disorders from biochemical profiles” (ESA, Inc., priority 1993, dated 2001)
Read-outs that look alike come from different tables or passages of the source.

How the values were obtained:
[1] = Stability in perchloric acid extracts of nasal secretions over 24 hours at room temperature; type: physicochemical
Excerpt: (§1) Two characteristics make nasal secretions attractive for neurochemical analysis. The secretions are close to the site or origin of the compounds being measured and they are in a strong reducing environment. Oxidation potential measurements of saline suspensions of nasal secretions with platinum vs. Ag/Ag/cl yield values from -0.230 to -0.300 mV compared to lumbar CSF values of -0.050 to -0.170. The reducing character of the tissue is consistent with observation of a large number of easily oxidized peaks on the lower channels of the chromatographic pattern. The reducing character of the sample makes it highly attractive for clinical use because of the stability inferred for the target compounds. Indeed preliminary studies indicate no change in 5-hydroxyindoleacetic acid or homovanillic acid over 24 hours in perchloric acid extracts at room temperature. From the number of peaks in the 35-50 min region, the nasal mucosa also appear to be a stable matrix for small peptides, including fragments of β-amyloid peptide.
Swabs were extracted by cutting the tip and placing it in 300 μl of 0.1 M HClO4, they ere vortexed for 1 min. centrifuged and then reextracted in another 300 μl of 0.1 M HClO4. […] Following centrifugation the pellets are combined, and can be extracted with 40:60 acetonitrilehexane for analysis of ubiquinones and larger peptides.

[2] = Incubation of β-amyloid in saline suspensions of nasal mucosa, development of electroactive peaks; type: in vitro ADME; conditions: over 6 hours, FIG. 7
Excerpt: as §1

For `O=C(O)Cc1c[nH]c2ccc(O)cc12` [5-hydroxyindoleacetic acid], the “change over 24 hours (stability)” value [1] was “no change”.

For `COc1cc(CC(=O)O)ccc1O` [homovanillic acid], the “change over 24 hours (stability)” value ([1]; 24 hours, perchloric acid extracts, room temperature, preliminary studies) was “no change”.

With β-amyloid the “development of electroactive peaks” value [2] was “development over 6 hours of electroactive peaks” and the “electroactive peaks which corresponded to original peaks in the suspension” value [2] was “five”.
